Laboratory results taken from publication PMC12274840 (The Journal of Biological Chemistry, 2025).
Converted amounts (≈) assume the structure as drawn. Like-named read-outs stand apart in the source and are kept apart here.

What was measured:
Assay type in all cases: cell-based
[1] = tested on: E. coli KA797 cells carrying pUK21 vector without the β-lactamase gene; assay: microbe, parasite or virus in culture; details: Escherichia coli; antibiotic alone; pUK21 without β-lactamase gene; read-out: MIC
[2] = tested on: E. coli KA797 cells carrying pUK21 with BlaC WT (Tat); assay: microbe, parasite or virus in culture; details: Escherichia coli, antibiotic alone
[3] = tested on: E. coli KA797 cells carrying pUK21 with KPC-2 (Tat); assay: microbe, parasite or virus in culture; details: Escherichia coli, antibiotic alone
[4] = tested on: E. coli KA797 cells carrying pUK21 with NmcA (pelB/Sec); assay: microbe, parasite or virus in culture; details: Escherichia coli, antibiotic alone
[5] = tested on: E. coli KA797 cells carrying KPC-2 position 105 library; details: selection with labelled antibiotic
[6] = tested on: E. coli KA797 cells carrying TEM-1 position 105 library; details: for Fi carbenicillin AVG: average of replicates

## CC1(C)S[C@@H]2[C@H](NC(=O)C(C(=O)O)c3ccccc3)C(=O)N2[C@H]1C(=O)O (stereo partly shown) [carbenicillin]
[1]
  MIC: 10 µg/mL (≈ 26.4 µM)
[2]
  MIC: 800 µg/mL (≈ 2110 µM)
[3]
  MIC: 400 µg/mL (≈ 1060 µM)
[4]
  MIC: 200 µg/mL (≈ 529 µM)
[5]; KPC-2 AA 105 = Ala
  Fi AVG (average fitness of replicates): -1.895
[5]; KPC-2 AA 105 = Arg
  Fi AVG (average fitness of replicates): -0.930
  Significance of average fitness: -
[5]; KPC-2 AA 105 = Asn
  Fi AVG (average fitness of replicates): -1.475
[5]; KPC-2 AA 105 = Asp
  Fi AVG (average fitness of replicates): -1.100
  Significance of average fitness: -
[5]; KPC-2 AA 105 = Cys
  Fi AVG (average fitness of replicates): -1.311
  Significance of average fitness: -
[5]; KPC-2 AA 105 = Gln
  Fi AVG (average fitness of replicates): -2.037
  Significance of average fitness: -
[5]; KPC-2 AA 105 = Glu
  Fi AVG (average fitness of replicates): -1.844
[5]; KPC-2 AA 105 = Gly
  Fi AVG (average fitness of replicates): -1.656
  Significance of average fitness: -
[5]; KPC-2 AA 105 = His
  Fi AVG (average fitness of replicates): 0.833
  Significance of average fitness: +
[5]; KPC-2 AA 105 = Ile
  Fi AVG (average fitness of replicates): -0.975
[5]; KPC-2 AA 105 = Leu
  Fi AVG (average fitness of replicates): -1.769
  Significance of average fitness: -
[5]; KPC-2 AA 105 = Met
  Fi AVG (average fitness of replicates): -2.969
[5]; KPC-2 AA 105 = Phe
  Fi AVG (average fitness of replicates): -1.337
  Significance of average fitness: -
[5]; KPC-2 AA 105 = Ser
  Fi AVG (average fitness of replicates): -2.334
  Significance of average fitness: -
[5]; KPC-2 AA 105 = Thr
  Fi AVG (average fitness of replicates): -0.740
  Significance of average fitness: -
[5]; KPC-2 AA 105 = Trp (WT, reference)
  Fi AVG (average fitness of replicates): 0.000
[5]; KPC-2 AA 105 = Tyr
  Fi AVG (average fitness of replicates): -1.021
  Significance of average fitness: -
[5]; KPC-2 AA 105 = Val
  Fi AVG (average fitness of replicates): -2.800
  Significance of average fitness: -
[5]; KPC-2 WT (Trp 105), replicate 1
  WT abs Fi 1 (absolute fitness): 0.136
[5]; KPC-2 WT (Trp 105), replicate 2
  WT abs Fi 2 (absolute fitness): -0.163
[5]; KPC-2 WT (Trp 105), replicate 3
  WT abs Fi 3 (absolute fitness): 0.473
[6]; AA 105 Ala
  Significance (Average fitnes carbenicillin): -
  Fi carbenicillin AVG: -0.528
[6]; AA 105 Ala, replicate 1
  Fi CAR 1: -0.503
[6]; AA 105 Ala, replicate 2
  Fi CAR 2: -0.553
[6]; AA 105 Arg
  Significance (Average fitnes carbenicillin): -
  Fi carbenicillin AVG: -0.371
[6]; AA 105 Arg, replicate 1
  Fi CAR 1: -0.360
[6]; AA 105 Arg, replicate 2
  Fi CAR 2: -0.382
[6]; AA 105 Asn
  Fi carbenicillin AVG: -0.119
[6]; AA 105 Asn, replicate 1
  Fi CAR 1: -0.088
[6]; AA 105 Asn, replicate 2
  Fi CAR 2: -0.150
[6]; AA 105 Asp
  Significance (Average fitnes carbenicillin): -
  Fi carbenicillin AVG: -1.040
[6]; AA 105 Asp, replicate 1
  Fi CAR 1: -1.009
[6]; AA 105 Asp, replicate 2
  Fi CAR 2: -1.070
[6]; AA 105 Cys
  Significance (Average fitnes carbenicillin): -
  Fi carbenicillin AVG: -0.639
[6]; AA 105 Cys, replicate 1
  Fi CAR 1: -0.611
[6]; AA 105 Cys, replicate 2
  Fi CAR 2: -0.666
[6]; AA 105 Gln
  Significance (Average fitnes carbenicillin): -
  Fi carbenicillin AVG: -0.400
[6]; AA 105 Gln, replicate 1
  Fi CAR 1: -0.384
[6]; AA 105 Gln, replicate 2
  Fi CAR 2: -0.417
[6]; AA 105 Glu
  Significance (Average fitnes carbenicillin): -
  Fi carbenicillin AVG: -0.893
[6]; AA 105 Glu, replicate 1
  Fi CAR 1: -0.890
[6]; AA 105 Glu, replicate 2
  Fi CAR 2: -0.895
[6]; AA 105 Gly
  Fi carbenicillin AVG: -0.181
[6]; AA 105 Gly, replicate 1
  Fi CAR 1: -0.158
[6]; AA 105 Gly, replicate 2
  Fi CAR 2: -0.204
[6]; AA 105 His
  Fi carbenicillin AVG: -0.182
[6]; AA 105 His, replicate 1
  Fi CAR 1: -0.177
[6]; AA 105 His, replicate 2
  Fi CAR 2: -0.187
[6]; AA 105 Ile
  Significance (Average fitnes carbenicillin): -
  Fi carbenicillin AVG: -0.707
[6]; AA 105 Ile, replicate 1
  Fi CAR 1: -0.683
[6]; AA 105 Ile, replicate 2
  Fi CAR 2: -0.731
[6]; AA 105 Leu
  Significance (Average fitnes carbenicillin): -
  Fi carbenicillin AVG: -0.631
[6]; AA 105 Leu, replicate 1
  Fi CAR 1: -0.615
[6]; AA 105 Leu, replicate 2
  Fi CAR 2: -0.647
[6]; AA 105 Lys
  Significance (Average fitnes carbenicillin): -
  Fi carbenicillin AVG: -0.496
[6]; AA 105 Lys, replicate 1
  Fi CAR 1: -0.486
[6]; AA 105 Lys, replicate 2
  Fi CAR 2: -0.506
[6]; AA 105 Met
  Significance (Average fitnes carbenicillin): -
  Fi carbenicillin AVG: -0.369
[6]; AA 105 Met, replicate 1
  Fi CAR 1: -0.357
[6]; AA 105 Met, replicate 2
  Fi CAR 2: -0.382
[6]; AA 105 Phe
  Fi carbenicillin AVG: -0.152
[6]; AA 105 Phe, replicate 1
  Fi CAR 1: -0.133
[6]; AA 105 Phe, replicate 2
  Fi CAR 2: -0.171
[6]; AA 105 Pro
  Significance (Average fitnes carbenicillin): -
  Fi carbenicillin AVG: -0.936
[6]; AA 105 Pro, replicate 1
  Fi CAR 1: -0.929
[6]; AA 105 Pro, replicate 2
  Fi CAR 2: -0.943
[6]; AA 105 Ser
  Significance (Average fitnes carbenicillin): -
  Fi carbenicillin AVG: -0.354
[6]; AA 105 Ser, replicate 1
  Fi CAR 1: -0.356
[6]; AA 105 Ser, replicate 2
  Fi CAR 2: -0.352
[6]; AA 105 Thr
  Significance (Average fitnes carbenicillin): -
  Fi carbenicillin AVG: -0.562
[6]; AA 105 Thr, replicate 1
  Fi CAR 1: -0.532
[6]; AA 105 Trp
  Fi carbenicillin AVG: -0.027
[6]; AA 105 Trp, replicate 1
  Fi CAR 1: -0.012
[6]; AA 105 Trp, replicate 2
  Fi CAR 2: -0.043
[6]; AA 105 Tyr
  Fi carbenicillin AVG: 0.000
[6]; AA 105 Tyr, replicate 1
  Fi CAR 1: 0.000
[6]; AA 105 Tyr, replicate 2
  Fi CAR 2: 0.000
[6]; AA 105 Val
  Significance (Average fitnes carbenicillin): -
  Fi carbenicillin AVG: -0.544
[6]; AA 105 Val, replicate 1
  Fi CAR 1: -0.508
[6]; AA 105 Val, replicate 2
  Fi CAR 2: -0.579
[6]; absolute fitness of TEM-1 WT, carbenicillin, replicate 1
  WT abs Fi 1: 0.724
[6]; absolute fitness of TEM-1 WT, carbenicillin, replicate 2
  WT abs Fi 2: 0.359
